In patent US10766903B2 (ALMAC DISCOVERY LIMITED, priority 2016, dated 2020):

biological target: USP7 (Homo sapiens (Human), UniProt Q93009); test: USP7 fluorescence polarisation (FP) biochemical assay, ubiquitin-Lys-TAMRA substrate; details: not given
How it was run: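 Full-length His6-USP7 (2.5 nM) incubated ± inhibitor (8-point dilutions, 200 to 0.1 μM before addition) in 50 mM HEPES pH 7.2, 150 mM NaCl, 0.5 mM EDTA, 5 mM DTT, 0.05% BSA, 0.05% CHAPS. Ubiquitin-Lys-TAMRA cleavage followed by FP (ex 530/em 575 nm) every 15 min for 1.5 h; normalised to no-compound control.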

Chain of USP7 (Q93009 whole entry): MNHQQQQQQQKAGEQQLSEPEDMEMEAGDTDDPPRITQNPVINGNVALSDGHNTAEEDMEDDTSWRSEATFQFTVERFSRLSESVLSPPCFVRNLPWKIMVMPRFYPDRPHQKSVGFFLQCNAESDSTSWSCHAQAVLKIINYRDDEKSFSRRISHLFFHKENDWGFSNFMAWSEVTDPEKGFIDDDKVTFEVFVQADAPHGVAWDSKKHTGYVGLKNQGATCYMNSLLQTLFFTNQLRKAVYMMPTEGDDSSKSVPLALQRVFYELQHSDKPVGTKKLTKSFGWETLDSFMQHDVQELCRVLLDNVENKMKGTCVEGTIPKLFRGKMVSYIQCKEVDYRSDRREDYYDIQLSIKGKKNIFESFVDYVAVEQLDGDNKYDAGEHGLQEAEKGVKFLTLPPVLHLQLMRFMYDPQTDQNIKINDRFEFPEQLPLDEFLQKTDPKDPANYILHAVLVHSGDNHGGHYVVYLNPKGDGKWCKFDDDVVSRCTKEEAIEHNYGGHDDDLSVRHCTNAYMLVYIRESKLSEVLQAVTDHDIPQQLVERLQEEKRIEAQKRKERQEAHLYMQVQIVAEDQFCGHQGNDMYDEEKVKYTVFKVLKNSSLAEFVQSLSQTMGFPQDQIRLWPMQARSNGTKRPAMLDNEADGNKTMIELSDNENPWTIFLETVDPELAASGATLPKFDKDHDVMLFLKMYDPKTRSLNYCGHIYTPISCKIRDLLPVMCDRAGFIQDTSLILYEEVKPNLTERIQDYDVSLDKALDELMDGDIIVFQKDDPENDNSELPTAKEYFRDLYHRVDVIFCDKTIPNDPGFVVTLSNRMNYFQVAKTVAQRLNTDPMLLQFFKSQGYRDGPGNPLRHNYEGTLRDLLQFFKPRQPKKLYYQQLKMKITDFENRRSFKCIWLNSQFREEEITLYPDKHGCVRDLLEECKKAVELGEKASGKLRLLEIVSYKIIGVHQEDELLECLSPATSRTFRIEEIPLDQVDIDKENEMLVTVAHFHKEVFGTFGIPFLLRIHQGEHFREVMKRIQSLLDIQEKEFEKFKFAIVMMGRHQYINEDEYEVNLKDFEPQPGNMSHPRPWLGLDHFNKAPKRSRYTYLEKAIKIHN

IC50 [nM]	SMILES
250 to 999	C[C@H](CC(=O)N1CCC(O)(Cn2cnc3c(-c4cccc(CN5CCOCC5)c4)n(C)nc3c2=O)CC1)c1ccccc1 [Example 108, (R)-6-((4-Hydroxy-1-(3-phenylbutanoyl)piperidin-4-yl)methyl)-2-methyl-3-(3-(morpholinomethyl)phenyl)-2H-pyrazolo[4,3-d]pyrimidin-7(6H)-one]

same assay, conditions: Table 4, biochemical assay; average of at least duplicate experiments; read-out: USP7 IC50

IC50 [nM]	SMILES
1000 to 200000	C[C@H](CC(=O)N1CCC(O)(Cn2cnc(-c3cncnc3)cc2=O)CC1)c1ccccc1 [Example 102]
1000 to 200000	C[C@H](CC(=O)N1CCC(O)(Cc2cnc(-c3ccccc3)cn2)CC1)c1ccccc1 [Example 115, (R)-1-(4-Hydroxy-4-((5-phenylpyrazin-2-yl)methyl)piperidin-1-yl)-3-phenylbutan-1-one]
1000 to 200000	C[C@H](CC(=O)N1CCC(O)(Cn2cnc(N(CCN3CCCC3)c3ccccc3)cc2=O)CC1)c1ccccc1 [Example 121, (R)-3-((4-Hydroxy-1-(3-phenylbutanoyl)piperidin-4-yl)methyl)-6-(phenyl(2-(pyrrolidin-1-yl)ethyl)amino)pyrimidin-4(3H)-one, Formic Acid]
< 250	Cn1nc2c(=O)n(CC3(O)CCN(C(=O)C[C@H](c4ccccc4)C(F)(F)F)CC3)cnc2c1-c1ccc([C@H](N)C(F)F)cc1 [Example 122, 3-(4-((S)-1-Amino-2,2-difluoroethyl)phenyl)-6-((4-hydroxy-1-((R)-4,4,4-trifluoro-3-phenylbutanoyl)piperidin-4-yl)methyl)-2-methyl-2H-pyrazolo[4,3-d]pyrimidin-7(6H)-one]
< 250	Cn1nc2c(=O)n(CC3(O)CCN(C(=O)C[C@H](c4ccccc4)C(F)(F)F)CC3)cnc2c1-c1ccc(CN)c(C(F)(F)F)c1 [Example 123, (R)-3-(4-(Aminomethyl)-3-(trifluoromethyl)phenyl)-6-((4-hydroxy-1-(4,4,4-trifluoro-3-phenylbutanoyl)piperidin-4-yl)methyl)-2-methyl-2H-pyrazolo[4,3-d]pyrimidin-7(6H)-one]
< 250	Cn1nc2c(=O)n(CC3(O)CCN(C(=O)C[C@H](c4ccccc4)C(F)(F)F)CC3)cnc2c1-c1ccc(C2(N)CC2)cc1 [Example 124, (R)-3-(4-(1-Aminocyclopropyl)phenyl)-6-((4-hydroxy-1-(4,4,4-trifluoro-3-phenylbutanoyl)piperidin-4-yl)methyl)-2-methyl-2H-pyrazolo[4,3-d]pyrimidin-7(6H)-one]
1000 to 200000	C[C@H](CC(=O)N1CCC(O)(CN2C(=O)Cc3ccccc32)CC1)c1ccccc1 [Example 126, (R)-1-((4-Hydroxy-1-(3-phenylbutanoyl)piperidin-4-yl)methyl)indolin-2-one]
250 to 999	O=C(C[C@H](c1ccccc1)C(F)(F)F)N1CCC(O)(Cn2cnc3c(ncn3-c3ccccc3)c2=O)CC1 [Example 128, (R)-1-((4-Hydroxy-1-(4,4,4-trifluoro-3-phenylbutanoyl)piperidin-4-yl)methyl)-9-phenyl-1H-purin-6(9H)-one]
< 250	O=C(C[C@H](c1ccccc1)C(F)F)N1CCC(O)(Cn2cnc3c(ncn3-c3ccccc3)c2=O)CC1 [Example 129, (R)-1-((1-(4,4-Difluoro-3-phenylbutanoyl)-4-hydroxypiperidin-4-yl)methyl)-9-phenyl-1H-purin-6(9H)-one]
1000 to 200000	CN1CC=C(c2c3ncn(CC4(O)CCN(C(=O)C[C@H](c5ccccc5)C(F)(F)F)CC4)c(=O)c3nn2C)CC1 [Example 130, (R)-6-((4-Hydroxy-1-(4,4,4-trifluoro-3-phenylbutanoyl)piperidin-4-yl)methyl)-2-methyl-3-(1-methyl-1,2,3,6-tetrahydropyridin-4-yl)-2H-pyrazolo[4,3-d]pyrimidin-7(6H)-one]
1000 to 200000	CC(=O)N1CCC(O)(Cn2cnc3c(-c4ccccc4)n(C)nc3c2=O)CC1 [Example 131, 6-((1-Acetyl-4-hydroxypiperidin-4-yl)methyl)-2-methyl-3-phenyl-2H-pyrazolo[4,3-d]pyrimidin-7(6H)-one]
< 250	Cn1nc2c(=O)n(CC3(O)CCN(C(=O)C[C@H](c4ccccc4)C(F)(F)F)CC3)cnc2c1C1=CCCCC1 [Example 134, (R)-3-(Cyclohex-1-en-1-yl)-6-((4-hydroxy-1-(4,4,4-trifluoro-3-phenylbutanoyl)piperidin-4-yl)methyl)-2-methyl-2H-pyrazolo[4,3-d]pyrimidin-7(6H)-one]

The remaining lines, values behind:

SMILES	IC50 [nM]
C[C@H](CC(=O)N1CCC(O)(Cn2cnc(N3CCOCC3)cc2=O)CC1)c1ccccc1 [Example 100, (R)-3-((4-Hydroxy-1-(3-phenylbutanoyl)piperidin-4-yl)methyl)-6-morpholinopyrimidin-4(3H)-one]	1000 to 200000
C[C@H](CC(=O)N1CCC(O)(C(O)c2cnc3ccccn3c2=O)CC1)c1ccccc1 (stereo partly drawn) [Example 101, 3-(Hydroxy(4-hydroxy-1-((R)-3-phenylbutanoyl)piperidin-4-yl)methyl)-4H-pyrido[1,2-a]pyrimidin-4-one]	1000 to 200000
C[C@H](CC(=O)N1CCC(O)(Cn2cnc(NCCO)cc2=O)CC1)c1ccccc1 [Example 103, (R)-3-((4-Hydroxy-1-(3-phenylbutanoyl)piperidin-4-yl)methyl)-6-((2-hydroxyethyl)amino)pyrimidin-4(3H)-one]	1000 to 200000
C[C@H](CC(=O)N1CCC(O)(C(O)c2cnc3c(-c4ccccc4)cccn3c2=O)CC1)c1ccccc1 (stereo partly drawn) [Example 105, 3-(Hydroxy(4-hydroxy-1-((R)-3-phenylbutanoyl)piperidin-4-yl)methyl)-9-phenyl-4H-pyrido[1,2-a]pyrimidin-4-one]	1000 to 200000
C[C@H](CC(=O)N1CCC(O)(Cn2cnc(N[C@@H]3CCNC3)cc2=O)CC1)c1ccccc1 [Example 110, 3-((4-Hydroxy-1-((R)-3-phenylbutanoyl)piperidin-4-yl)methyl)-6-(((R)-pyrrolidin-3-yl)amino)pyrimidin-4(3H)-one]	250 to 999
Cc1c(NCCN2CCCC2)ncn(CC2(O)CCN(C(=O)C[C@@H](C)c3ccccc3)CC2)c1=O [Example 111, (R)-3-((4-Hydroxy-1-(3-phenylbutanoyl)piperidin-4-yl)methyl)-5-methyl-6-((2-(pyrrolidin-1-yl)ethyl)amino)pyrimidin-4(3H)-one]	1000 to 200000
Cn1nc2c(=O)n(CC3(O)CCN(C(=O)OCc4ccccc4)CC3)cnc2c1-c1ccc(CN)cc1 [Example 112, Benzyl 4-((3-(4-(aminomethyl)phenyl)-2-methyl-7-oxo-2,7-dihydro-6H-pyrazolo[4,3-d]pyrimidin-6-yl)methyl)-4-hydroxypiperidine-1-carboxylate]	1000 to 200000
CC(=O)N(CCN1CCCC1)c1cc(=O)n(CC2(O)CCN(C(=O)C[C@@H](C)c3ccccc3)CC2)cn1 [Example 113, (R)—N-(1-((4-Hydroxy-1-(3-phenylbutanoyl)piperidin-4-yl)methyl)-6-oxo-1,6-dihydropyrimidin-4-yl)-N-(2-(pyrrolidin-1-yl)ethyl)acetamide, Formic Acid]	1000 to 200000
C[C@H](CC(=O)N1CCC(O)(Cn2cnc(NCCN3CCC[C@H]3C)cc2=O)CC1)c1ccccc1 [Example 114, 3-((4-Hydroxy-1-((R)-3-phenylbutanoyl)piperidin-4-yl)methyl)-6-((2-((R)-2-methylpyrrolidin-1-yl)ethyl)amino)pyrimidin-4(3H)-one, Formic Acid]	< 250
Cn1nc2c(=O)n(CC3(O)CCN(C(=O)C[C@H](c4ccccc4)C(F)(F)F)CC3)cnc2c1-c1ccc([C@H](N)C(F)(F)F)cc1 [Example 119, 3-(4-((S)-1-Amino-2,2,2-trifluoroethyl)phenyl)-6-((4-hydroxy-1-((R)-4,4,4-trifluoro-3-phenylbutanoyl)piperidin-4-yl)methyl)-2-methyl-2H-pyrazolo[4,3-d]pyrimidin-7(6H)-one]	< 250
CCn1nc2c(=O)n(CC3(O)CCN(C(=O)C[C@H](c4ccccc4)C(F)(F)F)CC3)cnc2c1-c1ccc(CN)cc1 [Example 120]	< 250
Cn1nc2c(=O)n(CC3(O)CCN(C(=O)CC(C4CC4)C4CC4)CC3)cnc2c1-c1ccc(CN)cc1 [Example 127, 3-(4-(Aminomethyl)phenyl)-6-((1-(3,3-dicyclopropylpropanoyl)-4-hydroxypiperidin-4-yl)methyl)-2-methyl-2H-pyrazolo[4,3-d]pyrimidin-7(6H)-one]	< 250
CC(=O)N1CCC(O)(Cn2cnc(NCCN3CCCC3)cc2=O)CC1 [Example 132, 3-((1-Acetyl-4-hydroxypiperidin-4-yl)methyl)-6-((2-(pyrrolidin-1-yl)ethyl)amino)pyrimidin-4(3H)-one]	1000 to 200000
O=C(CC(C1CC1)C1CC1)N1CCC(O)(Cn2cnc(NCCN3CCCC3)cc2=O)CC1 [Example 133, 3-((1-(3,3-Dicyclopropylpropanoyl)-4-hydroxypiperidin-4-yl)methyl)-6-((2-(pyrrolidin-1-yl)ethyl)amino)pyrimidin-4(3H)-one]	250 to 999

same assay, conditions: USP7 IC50, Table 4, biochemical assay; average of at least duplicate experiments

IC50 [nM]	SMILES
250 to 999	Cn1nc2c(=O)n(CC3(O)CCN(C(=O)C[C@H](c4ccccc4)C(F)(F)F)CC3)cnc2c1-c1ccc([C@@H](N)C(F)(F)F)cc1 [Example 118, 3-(4-((R)-1-Amino-2,2,2-trifluoroethyl)phenyl)-6-((4-hydroxy-1-((R)-4,4,4-trifluoro-3-phenylbutanoyl)piperidin-4-yl)methyl)-2-methyl-2H-pyrazolo[4,3-d]pyrimidin-7(6H)-one]
250 to 999	Cc1ccc([C@@H](CC(=O)N2CCC(O)(Cn3cnc4c(-c5ccc(CN)cc5)n(C)nc4c3=O)CC2)C(F)(F)F)s1 [Example 125, (S)-3-(4-(Aminomethyl)phenyl)-6-((4-hydroxy-1-(4,4,4-trifluoro-3-(5-methylthiophen-2-yl)butanoyl)piperidin-4-yl)methyl)-2-methyl-2H-pyrazolo[4,3-d]pyrimidin-7(6H)-one]
